The values below come from PubChem BioAssay AID1508591.

Molecules are shown by their SMILES. Bounds are passed on as bounds.

The conditions of this series: rat; liver microsomes; pH 7.4; 15.0 min; 1.0 µM. On the technique in general: Liver microsomes are vesicles of endoplasmic reticulum, rich in cytochrome P450 enzymes.
As usually defined, the half-life is the time in which the quantity being followed falls by half. Lower therefore signals rapid decline. `c1cc(-c2cc(-c3ccncc3)c3cncn3c2)c2[nH]ncc2c1` returned a half-life of 10.1 min.

`COc1ccc(C(=O)Nc2nc(-c3ccccc3)cs2)cc1NS(=O)(=O)c1ccc(C)cc1`: the half-life came to 13 min. The half-life values of the last two molecules are within 1.5-fold of each other.

For the molecule `Cc1cc(NS(=O)(=O)c2ccc(NC(=O)Cc3ccc(Cl)c(Cl)c3)cc2)no1`, the half-life came out at 9.7 min. Take `OCCn1cc(-c2cnc3nnn(Cc4ccc5ncccc5c4)c3n2)cn1`: the half-life was greater than 30 min. Next, `OCc1cccc(-c2cc(-c3cccnc3)c3cncn3c2)c1`: 22 min; `O=C1NC(=S)NC(=O)C1=Cc1cccn1-c1ccc(O)cc1`: 10.5 min. Molecule `COc1cc(/C=C(\C#N)C(=O)c2ccc(O)c(O)c2)cc(I)c1O` had a half-life greater than 30 min. In the case of `COC(=O)CNC(=O)c1nc(-c2ccc([S+](C)(=O)[O-])cc2)c2cnccn12` it was greater than 30 min; in that of `COC(=O)c1ccc(Oc2nc3c(c(=O)n(C)c(=O)n3C)n2CCC(C)C)cc1`, 2.7 min. `Cc1ccc(SC2=NS(=O)(=O)c3ccccc32)c(C)c1` showed a half-life of 1.54 min. Against the preceding molecule, the half-life is about 1.8-fold lower. With `COc1cccc(CNc2ccc(S(=O)(=O)Nc3cnc4ccccc4c3)cc2)c1O`, the half-life was 13 min.

Turning to `C#CCOc1ccc(-c2nnc(Nc3ccc(NC(C)=O)cc3)c3ccccc23)cc1`, the half-life was greater than 30 min. For `Cc1ccc([S+](=O)([O-])n2cc(-c3ccc(-c4ccccc4)cc3)c3ccccc32)cc1`, the half-life was greater than 30 min. In the case of `CCc1cc(Cl)c(OC)c(C(=O)NC[C@@H]2CCCN2CC)c1O` it was 1.71 min; in that of `O=C1CCCC2=C1C(c1[nH]ncc1Cl)N=C(Nc1nc3cc(F)ccc3o1)N2` (stereo not given), 17 min.

On to `Cc1cn(CCN2CCN(c3ccccc3-c3cc(C#N)cc(C(=O)NCCCN4CCCC4)c3)CC2)c2ccccc12`, for which the half-life is greater than 30 min. In the case of `Cc1ccccc1CN1C2=NCCN2C(=O)C2=C1CCN(Cc1ccccc1)C2` it was 6.82 min. In the case of `CCOc1ccc(CCNC(=O)c2ccnn2Cc2cccc(C)c2)cc1OCC` it was 1.5 min. Next, `Cn1cc(C2=C(c3cn(C)c4cc([N+](=O)[O-])ccc34)C(=O)NC2=O)c2ccccc21`: 4.05 min; `CC1=C(C(=O)NC2CCCC2)C(c2nn(C)cc2Cl)N=C(Nc2nc3ccccc3o2)N1` (stereo not given): 2.7 min.

Turning to `COc1ccc(-c2nc(-c3c(C)noc3C)cc3c2cc(C)n3CCN(C)C)cc1OC`, the half-life was greater than 30 min. `O=c1c(-c2ccc(O)cc2)coc2cc(O)ccc12` came in with a half-life greater than 30 min. In the case of `NC(=O)C1CCN(c2nc(-c3ccc(OCc4ccccc4)cc3)cs2)CC1` it was 18.3 min; in that of `O=S(=O)(Nc1nccs1)c1ccc(NCc2cccc(O)c2)cc1`, greater than 30 min.

Molecule `Cc1cc(-c2nnc3n2CCCCC3)c(C)n1-c1cccc(C(F)(F)F)c1` returned a half-life of 1.9 min. With `O=S(=O)(Nc1nccs1)c1ccc(NCc2cccc3cc[nH]c23)cc1`, the half-life is greater than 30 min. In the case of `Cc1ccc(OCCn2c(CCNC(=O)N3CCCCC3)nc3ccccc32)cc1` it was 1.7 min; in that of `O=C(Nc1ncc(-c2ccccc2)s1)c1ccc(-c2cccc([N+](=O)[O-])c2)o1`, greater than 30 min. In the case of `Cc1ccc(OCCn2c(CCNC(=O)C3CCCCC3)nc3ccccc32)cc1` it was 1.6 min; in that of `N=c1c2c(n(Cc3ccccc3)c3c1CCC3)CCC2`, 4.04 min.

Consider `CN1CCN(c2ccc(Nc3nn4c(=O)c5ccccc5nc4s3)cc2)CC1`, for which the half-life came to 15.2 min. Compared with the last molecule, the half-life is about 3.8-fold higher. Next, `Cc1sc(NC(=O)Cc2ccc3c(c2)OCO3)nc1-c1ccc2c(c1)CCN2C(=O)C1CCCCC1`: 8.6 min; `COc1ccc(NC(=O)c2[nH]c(C)c(C(C)=O)c2C)cc1S(=O)(=O)N(C)C`: greater than 30 min; `OCCNc1ncnc2c1ncn2[C@@H]1O[C@@H](CO)[C@H](O)[C@@H]1O`: greater than 30 min.

`Cc1ccc(S(=O)(=O)Nc2ccccc2N2CCCCC2)cc1` came in with a half-life of 1.69 min. In the case of `CCOc1ccc(CCNC(=O)c2ccccc2)cc1OCC` it was 1.5 min. Next, `Cn1ccc2c(C(=O)NCCC(N)=O)nc(-c3cccc(CO)c3)cc21`: greater than 30 min. With `COc1ccc(NC(=O)c2[nH]c(C)c(C(C)=O)c2C)cc1[S+](=O)([O-])Nc1ccccc1C#N`, the half-life is greater than 30 min. Next, `COc1ccc(CCN2C(=O)N(c3ccc(F)cc3)C(=O)C2CC(=O)Nc2ccc(F)c(F)c2)cc1` (stereo not given): 4.04 min. In the case of `O=C(Nc1ccc(Cl)cc1)Nc1ccc(Cl)c(Cl)c1`, the half-life was greater than 30 min.

As for `CC(=O)c1c(C)[nH]c(C(=O)Nc2cccc([S+](=O)([O-])Nc3ccccn3)c2)c1C`, the half-life was greater than 30 min. In the case of `CC(C)CN(CC(=O)N(CCCN1CCCC1=O)CC(N)=O)C(=O)CNCCc1ccccc1F` it was greater than 30 min.

As for `Fc1ccc(Cl)cc1-c1nc(Nc2ccncc2)c2nccnc2n1`, the half-life amounted to 15.9 min. In the case of `CC[C@@]1(O)C(=O)OCc2c1cc1n(c2=O)Cc2c-1nc1cc(F)c(C)c3c1c2[C@@H](N)CC3` it was greater than 30 min; in that of `Cc1cc(C)nc(NC(=S)N2CCN(Cc3cccc(C(F)(F)F)c3)CC2)c1`, greater than 30 min. Next, `COc1ccc(CCn2c(N)cc(=O)[nH]c2=S)cc1OC`: greater than 30 min. Next, `COc1ccc(CCNC(=O)Cn2c(=O)c3cccn3c3ccc(F)cc32)cc1OC`: 1.81 min; `COc1ccc(-c2nc(Nc3ccc(F)c(F)c3)c3ccccc3n2)cc1`: greater than 30 min; `COc1ccc(-c2cc(-c3ccccc3)nc(SCC(=O)Nc3ccccc3C)c2C#N)cc1`: 2.47 min. For `Cc1ccc(NC2=C(c3ccc(C(F)(F)F)cc3)C(=O)c3ccccc32)cc1F`, the half-life is 8.96 min.

In the case of `COC(=O)Nc1nc2ccc(C(=O)c3ccccc3)cc2[nH]1`, the half-life is greater than 30 min. In the case of `COc1nccc(-c2nc(Nc3ccc(F)c(F)c3)c3ccccc3n2)c1Cl` it was greater than 30 min. In the case of `O=C(NC1CC1)C1CCCN1C(=O)c1cccc(-c2ccccn2)c1` (stereo not given) it was greater than 30 min; in that of `CCOc1ccc(CCNC(=O)c2cc3cccnc3n2Cc2cccc(C)n2)cc1OCC`, 1.7 min; in that of `Oc1ccc(C(=S)N2CCN(c3cccc(Cl)c3)CC2)cc1`, 1.7 min. Next, `COc1ccc(C(=O)NC2CCN(c3cnn(CC4CC4)c(=O)c3)CC2)cc1`: greater than 30 min; `Cc1ccc(-c2cc(C(=O)Nc3ccc(S(=O)(=O)Nc4ccc(C#N)cc4)cc3)c3ccccc3n2)cc1C`: 15 min. Turning to `CC(C)(O)CCc1ccc(OCc2cc(-c3cccc(OC(F)F)c3)c3ncccc3c2)cc1`, the half-life is greater than 30 min.

The molecule `Cc1ccc2oc(NC3=NC(c4ccccc4Cl)C4=C(CCCC4=O)N3)nc2c1` (stereo not given) gave a half-life greater than 30 min. In the case of `NC(=O)COc1ccc(C2CC(=O)Nc3n[nH]c(Nc4ccccc4)c32)cc1` (stereo not given) it was greater than 30 min; in that of `CC(=O)c1ccc(N2CCN(S(=O)(=O)c3cc4c(cc3Cl)NC(=O)C4)CC2)cc1`, 28 min. In the case of `Cc1ccccc1C(=O)NC1CCN(c2ccc3nnc(C4CC4)n3n2)CC1` it was greater than 30 min; in that of `CCOc1ccc(OCC)c(NC(=O)C(NS(=O)(=O)c2ccc(Br)s2)c2ccccc2)c1` (stereo not given), 2.04 min. For the molecule `CNC(=O)c1cc(Oc2ccc(NC(=O)Nc3ccc(Cl)c(C(F)(F)F)c3)c(F)c2)ccn1`, the half-life is greater than 30 min. Next, `Cc1nc(-c2ccco2)cc([C@H]2CN3CC[C@H]2C[C@@H]3CNC(=O)NC2CCCCC2)n1`: 29.6 min.
